# Molecular target: T1, mouse GnRH receptor (Mus musculus, UniProt Q01776)
# T1 construct: expressed in transfected cells; host or cells: 293 cells
# T1 sequence (Q01776 1-327): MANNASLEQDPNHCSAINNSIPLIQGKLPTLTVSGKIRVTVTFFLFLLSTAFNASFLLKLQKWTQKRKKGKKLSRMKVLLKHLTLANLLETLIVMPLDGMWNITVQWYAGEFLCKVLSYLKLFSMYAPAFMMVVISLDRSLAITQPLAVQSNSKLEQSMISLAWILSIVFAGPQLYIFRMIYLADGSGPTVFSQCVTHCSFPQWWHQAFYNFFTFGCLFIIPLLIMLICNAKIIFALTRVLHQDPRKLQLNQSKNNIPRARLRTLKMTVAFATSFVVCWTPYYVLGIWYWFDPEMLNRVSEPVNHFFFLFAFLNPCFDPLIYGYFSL
# Assay: Radioligand binding, 125I-GnRH-A, 293 cells expressing mouse GnRH receptors
# Details: 10 uM; read-out: % Inhib. @ 10 uM mGnRH
# Experimental: All compounds were diluted in 1% DMSO (final assay concentration) in binding assay buffer. […] Reactions were terminated by rapid filtration onto 96-well Packard GF/C filters soaked in 0.1% polyethyleneimine. Filters were washed three times with PBS buffer, dried and counted on a Packard Topcount by liquid scintillation counting.
# Assay conditions were identical for assessing compound activities at other species. […] IC50 values for control peptides and test compounds were calculated utilizing GraphPad Prism™ software.
# The reaction mixture was vortexed and incubated for 1 min at room temperature. After one min, the mixture was vortexed and allowed to incubate for an additional minute. 2 ml of 0.5 M acetic acid/1% BSA was added to the reaction tube and the mixture was added to a C18 Sep-Pak cartridge. The cartridge was washed with subsequent washes of 5 ml H2O and 5 ml 0.5M acetic acid and then eluted with 5×1 ml of 60% CH3CN/40% 0.5M acetic acid. The eluate was diluted with 3× volume of HPLC buffer A (0.1% TFA in H2O) and loaded onto a C18 column. […] The radioactive fractions (750 ed/fraction) are collected into clean polypropylene tubes containing 100 μl of 10% BSA. Fractions were assessed for biological activity by radioligand binding.
row,inhibition at 10 µM [%],SMILES
1,103,CCCCN(CCCC)CCCNC(=O)c1ccc(Cc2cc3c(cc2C)C(C)(C)CCC3(C)C)o1 [drawing 1242]
2,97,Cc1cc2c(cc1Cc1ccc(C(=O)NC[C@@H]3CCCC[C@H]3O)o1)C(C)(C)CCC2(C)C [drawing 1466]
3,99,Cc1cc2c(cc1Cc1ccc(C(=O)N(C)CCC(O)c3ccccc3)o1)C(C)(C)CCC2(C)C (stereo not drawn)
4,17,Cc1cc2c(cc1Cc1ccc(C(=O)N(Cc3cccc(Cl)c3)Cc3cccc(Cl)c3)o1)C(C)(C)CCC2(C)C
5,58,CCCCC(CC)COCCCNC(=O)c1ccc(Cc2cc3c(cc2C)C(C)(C)CCC3(C)C)o1 (stereo not drawn)
6,97,Cc1cc2c(cc1Cc1ccc(C(=O)NC3CCCCC3O)o1)C(C)(C)CCC2(C)C (stereo not drawn) [drawing 1522]
7,86,Cc1cc2c(cc1Cc1ccc(C(=O)N3CCC[C@@H]3C(=O)OCc3ccccc3)o1)C(C)(C)CCC2(C)C
8,8,Cc1cc2c(cc1Cc1ccc(C(=O)N(Cc3ccccc3Cl)CC(c3ccccc3)c3ccccc3)o1)C(C)(C)CCC2(C)C
9,90,Cc1cc2c(cc1Cc1ccc(C(=O)NCC(C)O)o1)C(C)(C)CCC2(C)C (stereo not drawn) [drawing 1443]
10,57,Cc1cc2c(cc1Cc1ccc(C(=O)NCCc3ccc(Oc4ccccc4)cc3)o1)C(C)(C)CCC2(C)C [drawing 1529]
11,42,Cc1cc2c(cc1Cc1ccc(C(=O)NCCn3c([N+](=O)[O-])cnc3C)o1)C(C)(C)CCC2(C)C [drawing 1486]
12,72,Cc1cc2c(cc1Cc1ccc(C(=O)N[C@H](C)c3ccccc3)o1)C(C)(C)CCC2(C)C
13,104,Cc1cc2c(cc1Cc1ccc(C(=O)N(CCCN3CCN(C)CC3)Cc3ccc(Cl)c(Cl)c3)o1)C(C)(C)CCC2(C)C
14,31,Cc1cc2c(cc1Cc1ccc(C(=O)N3CCCC3C(O)(c3ccccc3)c3ccccc3)o1)C(C)(C)CCC2(C)C (stereo not drawn)
15,81,COCCN1CCN(C(=O)c2ccc(Cc3cc4c(cc3C)C(C)(C)CCC4(C)C)o2)CC1
16,43,Cc1cc2c(cc1Cc1ccc(C(=O)N3CCCCC3C(=O)NC(c3ccccc3)c3ccccc3)o1)C(C)(C)CCC2(C)C (stereo not drawn) [drawing 1436]
17,69,Cc1cc2c(cc1Cc1ccc(C(=O)N3CCCC(C(N)=O)C3)o1)C(C)(C)CCC2(C)C (stereo not drawn)
18,46,COc1cc2c(cc1OC)CN(C(=O)c1ccc(Cc3cc4c(cc3C)C(C)(C)CCC4(C)C)o1)CC2 [drawing 1253]
19,80,Cc1cc2c(cc1Cc1ccc(C(=O)N3CCC(n4c(=O)[nH]c5ccccc54)CC3)o1)C(C)(C)CCC2(C)C [drawing 1246]
20,65,Cc1cc2c(cc1Cc1ccc(C(=O)N3CCN(Cc4ccc(C(C)(C)C)cc4)CC3)o1)C(C)(C)CCC2(C)C [drawing 1534]
21,59,Cc1cc2c(cc1Cc1ccc(C(=O)N(C)[C@@H](C)Cc3ccccc3)o1)C(C)(C)CCC2(C)C
22,23,Cc1ccc(CN(CCc2ccc(Cl)cc2Cl)C(=O)c2ccc(Cc3cc4c(cc3C)C(C)(C)CCC4(C)C)o2)cc1
23,76,Cc1cc2c(cc1Cc1ccc(C(=O)N(Cc3ccc(C(C)C)cc3)Cc3cccnc3)o1)C(C)(C)CCC2(C)C [drawing 1474]
24,13,Cc1cc2c(cc1Cc1ccc(C(=O)NC(CO)(CO)CO)o1)C(C)(C)CCC2(C)C
25,94,CCCN(CCC#N)C(=O)c1ccc(Cc2cc3c(cc2C)C(C)(C)CCC3(C)C)o1

# Same assay, conditions: 1 h, substrate remaining; 10 uM compound; closer to zero = closer to 100% inhibition; read-out: S%R 10 uM mGnRHR
row,remaining activity at 10 µM [%],SMILES
1,29,Cc1cc2c(cc1Cc1ccc(C(=O)NC(C)c3ccccc3)o1)C(C)(C)CCC2(C)C (stereo not drawn) [Compound 616]
2,21,Cc1cc2c(cc1Cc1ccc(C(=O)N3CCN(CC(=O)N4CCCC4)CC3)o1)C(C)(C)CCC2(C)C [Compound 555]
3,51,Cc1cc2c(cc1Cc1ccc(C(=O)NCCc3ccccc3Oc3ccccc3)o1)C(C)(C)CCC2(C)C [Compound 512]
4,58,Cc1cc2c(cc1Cc1ccc(C(=O)NCCn3c([N+](=O)[O-])cnc3C)o1)C(C)(C)CCC2(C)C [Compound 552]
5,-3,Cc1cc2c(cc1Cc1ccc(C(=O)NCCCN3CCN(C)CC3)o1)C(C)(C)CCC2(C)C [Compound 475]
6,1,CCN(C(=O)c1ccc(Cc2cc3c(cc2C)C(C)(C)CCC3(C)C)o1)C1CCCCC1 [Compound 664]
7,4,Cc1cc2c(cc1Cc1ccc(C(=O)NCc3ccc(F)cc3)o1)C(C)(C)CCC2(C)C [Compound 604]
8,-5,Cc1cc2c(cc1Cc1ccc(C(=O)NCCc3ccncc3)o1)C(C)(C)CCC2(C)C [Compound 485]
9,2,Cc1cc2c(cc1Cc1ccc(C(=O)NCCCCCO)o1)C(C)(C)CCC2(C)C [Compound 593]
10,1,CCCN(CCc1ccccn1)C(=O)c1ccc(Cc2cc3c(cc2C)C(C)(C)CCC3(C)C)o1 [Compound 697]
11,53,Cc1cc2c(cc1Cc1ccc(C(=O)N(Cc3ccc(C(C)C)cc3)C3CCN(Cc4ccccc4)C3)o1)C(C)(C)CCC2(C)C (stereo not drawn) [Compound 638]
12,48,Cc1cc2c(cc1Cc1ccc(C(=O)NC3c4ccccc4-c4ccccc43)o1)C(C)(C)CCC2(C)C [Compound 570]
13,2,CCCC(CO)NC(=O)c1ccc(Cc2cc3c(cc2C)C(C)(C)CCC3(C)C)o1 (stereo not drawn) [Compound 673]
14,-2,Cc1cc2c(cc1Cc1ccc(C(=O)NCCCCCCO)o1)C(C)(C)CCC2(C)C [Compound 617]
15,-2,Cc1cc2c(cc1Cc1ccc(C(=O)N3CCN(c4cccc(NCC5CCCO5)n4)CC3)o1)C(C)(C)CCC2(C)C (stereo not drawn) [Compound 480]
16,35,Cc1cc2c(cc1Cc1ccc(C(=O)NCCc3ccc(Cl)cc3Cl)o1)C(C)(C)CCC2(C)C [Compound 524]
17,9,Cc1cc2c(cc1Cc1ccc(C(=O)NCC3CCN(c4nccc(NCC5CCCO5)n4)CC3)o1)C(C)(C)CCC2(C)C (stereo not drawn) [Compound 491]
18,46,Cc1cc2c(cc1Cc1ccc(C(=O)NCCc3cccc(Oc4ccccc4)c3)o1)C(C)(C)CCC2(C)C [Compound 504]
19,3,Cc1cc2c(cc1Cc1ccc(C(=O)NCCCCNc3nccc(NCC4CCCO4)n3)o1)C(C)(C)CCC2(C)C (stereo not drawn) [Compound 487]
20,27,Cc1cccc(N2CCN(C(=O)c3ccc(Cc4cc5c(cc4C)C(C)(C)CCC5(C)C)o3)CC2C)c1 (stereo not drawn) [Compound 635]
21,2,Cc1cc2c(cc1Cc1ccc(C(=O)NCc3ccc(C(=O)O)cc3)o1)C(C)(C)CCC2(C)C [Compound 497]
22,47,Cc1cc2c(cc1Cc1ccc(C(=O)Nc3ccc4[nH]c(-c5ccccn5)nc4c3)o1)C(C)(C)CCC2(C)C [Compound 477]
23,43,Cc1cc2c(cc1Cc1ccc(C(=O)N(C)CCC=C3c4ccccc4CCc4ccccc43)o1)C(C)(C)CCC2(C)C [Compound 535]
24,7,COc1ccc(OC)c(CCNC(=O)c2ccc(Cc3cc4c(cc3C)C(C)(C)CCC4(C)C)o2)c1 [Compound 508]
25,57,Cc1cc2c(cc1Cc1ccc(C(=O)N3CCCCC3C(=O)NC(c3ccccc3)c3ccccc3)o1)C(C)(C)CCC2(C)C (stereo not drawn) [Compound 586]

# Same assay, conditions: substrate remaining; 10 uM compound; closer to zero = closer to 100% inhibition
row,S%R 10 uM mGnRHR [%],SMILES
1,10,Cc1cc2c(cc1Cc1ccc(C(=O)NCCc3c[nH]cn3)o1)C(C)(C)CCC2(C)C [Compound 527]
